The source of these data is patent US10759813B2, “Neprilysin inhibitors” (THERAVANCE BIOPHARMA R&D IP, LLC, priority 2010, dated 2020).

Each structure is given as a SMILES string.

Chain of human neprilysin (EC 3.4.24.11; NEP) (P08473 52-750): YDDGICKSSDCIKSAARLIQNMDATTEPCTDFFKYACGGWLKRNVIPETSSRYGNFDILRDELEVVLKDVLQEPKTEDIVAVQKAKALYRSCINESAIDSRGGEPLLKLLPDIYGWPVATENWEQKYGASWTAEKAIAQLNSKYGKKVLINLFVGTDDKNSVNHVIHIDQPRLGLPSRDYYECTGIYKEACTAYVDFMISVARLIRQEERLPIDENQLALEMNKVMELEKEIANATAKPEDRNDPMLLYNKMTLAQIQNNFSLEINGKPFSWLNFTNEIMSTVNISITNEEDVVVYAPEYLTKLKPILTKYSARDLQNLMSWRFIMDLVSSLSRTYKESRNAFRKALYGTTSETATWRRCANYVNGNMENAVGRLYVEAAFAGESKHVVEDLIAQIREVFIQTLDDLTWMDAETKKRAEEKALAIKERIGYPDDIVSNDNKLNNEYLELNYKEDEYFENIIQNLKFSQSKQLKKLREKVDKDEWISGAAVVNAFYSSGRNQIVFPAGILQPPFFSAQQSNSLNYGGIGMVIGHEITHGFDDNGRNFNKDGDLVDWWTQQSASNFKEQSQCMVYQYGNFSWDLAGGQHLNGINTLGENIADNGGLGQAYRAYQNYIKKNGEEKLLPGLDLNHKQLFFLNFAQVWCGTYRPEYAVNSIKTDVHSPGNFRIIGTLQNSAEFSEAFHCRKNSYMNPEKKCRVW

The experiment concerns the target human neprilysin (EC 3.4.24.11; NEP) (Homo sapiens (Human), UniProt P08473). The experiment in a line: In vitro enzyme inhibition assay at human NEP (fluorogenic peptide substrate). The following applies: pKi values at human NEP, recombinant human NEP. In kind it is biochemical. In a few lines: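 pKi derived from apparent Ki fitted as v=v0/[1+(I/K′)] to Ex320/Em405 fluorescence. Compounds (pM to 10 μM) sat with recombinant human enzyme 30 min at 37 °C before 10 μM fluorogenic Mca peptide was added in HEPES pH 7.5 buffer with 10 μM ZnSO4; 20 min reaction, acetic acid quench.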
Broadly, the Ki is a dissociation constant, usually derived from enzyme kinetics or from competition with a known ligand. For `CC(=O)c1cc(C(=O)N[C@H](Cc2ccc(-c3ccccc3)cc2)C[C@@H](O)C(N)=O)[nH]n1` [Example 15-108, 5-Acetyl-2H-pyrazole-3-carboxylic acid ((1R,3R)-1-biphenyl-4-ylmethyl-3-carbamoyl-3-hydroxypropyl)amide], the Ki is 12.6 to 100 nM.

For `C[C@H](O)c1cc(C(=O)N[C@H](Cc2ccc(-c3ccccc3)cc2)C[C@@H](O)C(=O)O)[nH]n1` [Example 15-109, (2R,4R)-5-Biphenyl-4-yl-2-hydroxy-4-{[5-((S)-1-hydroxyethyl)-2H-pyrazole-3-carbonyl]amino}pentanoic acid], the inhibition constant Ki is 1.26 to 10 nM.

As to `C[C@@H](O)c1cc(C(=O)N[C@H](Cc2ccc(-c3ccccc3)cc2)C[C@@H](O)C(=O)O)[nH]n1` [Example 15-110, (2R,4R)-5-Biphenyl-4-yl-2-hydroxy-4-{[5-((R)-1-hydroxyethyl)-2H-pyrazole-3-carbonyl]amino}pentanoic acid], the Ki is 1.26 to 10 nM.

Usually pKi stands for the Ki on a negative log10 scale, so that one unit is a factor of ten. Regarding `C/C(=N\O)c1cc(C(=O)N[C@H](Cc2ccc(-c3ccccc3)cc2)C[C@@H](O)C(=O)O)[nH]n1` [Example 15-111, (2R,4R)-5-Biphenyl-4-yl-2-hydroxy-4-[(5-{1-[(E)-hydroxyimino]-ethyl}-2H-pyrazole-3-carbonyl)-amino]-pentanoic acid], the negative-log Ki (pKi) is at least 9.0.

For `CCCCc1cc(C(=O)N[C@H](Cc2ccc(-c3ccccc3)cc2)C[C@@H](O)C(=O)O)[nH]n1` [Example 15-112, (2R,4R)-5-Biphenyl-4-yl-4-[(5-butyl-2H-pyrazole-3-carbonyl)-amino]-2-hydroxy-pentanoic acid], the Ki is 1.26 to 10 nM.

On to `O=C(N[C@H](Cc1ccc(-c2ccccc2)cc1)CC(O)C(=O)O)c1cn[nH]c1` (stereo partly drawn) [Example 15-113, (R)-5-Biphenyl-4-yl-2-hydroxy-4-[(1H-pyrazole-4-carbonyl)amino]pentanoic acid], for which the Ki was 12.6 to 100 nM.

In the case of `O=C(N[C@H](Cc1ccc(-c2ccccc2)cc1)C[C@@H](O)C(=O)O)c1cc2n(n1)CCOc1ccccc1-2` [Example 16-1, (2R,4R)-5-Biphenyl-4-yl-4-[(4,5-dihydro-6-oxa-3,3a-diaza-benzo[e]azulene-2-carbonyl)-amino]-2-hydroxy-pentanoic acid], the pKi is at least 9.0.

As to `O=C(N[C@H](Cc1ccc(-c2ccccc2)cc1)C[C@@H](O)C(=O)O)c1cc2nn1CCOc1ccccc1-2` [Example 16-2, (2R,4R)-5-Biphenyl-4-yl-2-hydroxy-4-[(8-oxa-11,14-diaza-tricyclo[9.2.1.02,7]tetradeca-1(14),2,4,6,12-pentaene-12-carbonyl)-amino]-pentanoic acid], the inhibitory constant (Ki) was 12.6 to 100 nM.

With `O=C(N[C@H](Cc1ccc(-c2ccccc2)cc1)C[C@@H](O)C(=O)O)c1cc2n(n1)CCCOc1ccccc1-2` [Example 16-3, (2R,4R)-5-Biphenyl-4-yl-2-hydroxy-4-[(10-oxa-5,6-diaza-tricyclo[9.4.0.02,6]pentadeca-1(15),2,4,11,13-pentaene-4-carbonyl)-amino]-pentanoic acid], the Ki is 1.26 to 10 nM.

Turning to `O=C(N[C@H](Cc1ccc(-c2ccccc2)cc1)C[C@@H](O)C(=O)O)c1cc2n(n1)C[C@H](O)COc1ccccc1-2` [Example 16-4, (2R,4R)-5-Biphenyl-4-yl-2-hydroxy-4-[((S)-8-hydroxy-10-oxa-5,6-diaza-tricyclo[9.4.0.02,6]pentadeca-1(15),2,4,11,13-pentaene-4-carbonyl)-amino]-pentanoic acid], the Ki is 1.26 to 10 nM.

As for `O=C(N[C@H](Cc1ccc(-c2ccccc2)cc1)C[C@@H](O)C(=O)O)c1cc2n(n1)C[C@@H](O)COc1ccccc1-2` [Example 16-5, (2R,4R)-5-Biphenyl-4-yl-2-hydroxy-4-[((R)-8-hydroxy-10-oxa-5,6-diaza-tricyclo[9.4.0.02,6]pentadeca-1(15),2,4,11,13-pentaene-4-carbonyl)-amino]-pentanoic acid], the Ki was 12.6 to 100 nM.

In the case of `O=C(N[C@H](Cc1ccc(-c2ccccc2)cc1)C[C@@H](O)C(=O)O)c1cc2n(n1)COc1ccccc1-2` [Example 16-6, (2R,4R)-5-Biphenyl-4-yl-2-hydroxy-4-[(5-oxa-3,3a-diaza-cyclopenta[a]naphthalene-2-carbonyl)-amino]-pentanoic acid], the Ki was 1.26 to 10 nM.

Consider `O=C(N[C@H](Cc1ccc(-c2cccc(Cl)c2)cc1)C[C@@H](O)C(=O)O)c1cn(O)nn1` [Example 17-A, (2R,4R)-5-(3′-Chlorobiphenyl-4-yl)-2-hydroxy-4-[(1-hydroxy-1H-[1,2,3]triazole-4-carbonyl)-amino]pentanoic Acid], for which the Ki was at most 1 nM.

For the molecule `O=C(N[C@H](Cc1ccc(-c2cccc(Cl)c2)cc1)C[C@@H](O)C(=O)O)c1c[nH]nn1` [Example 18-2, (2R,4R)-5-(3′-Chlorobiphenyl-4-yl)-2-hydroxy-4-[(1H-[1,2,3]triazole-4-carbonyl)-amino]-pentanoic acid], the pKi is recorded as at least 9.0.

For the molecule `O=C(N[C@H](Cc1ccc(-c2cccc(Cl)c2)cc1)C[C@@H](O)C(=O)O)c1ccc2nnn(O)c2c1` [Example 18-3, (2R,4R)-5-(3′-Chlorobiphenyl-4-yl)-2-hydroxy-4-[(3-hydroxy-3H-benzotriazole-5-carbonyl)-amino]-pentanoic acid], the pKi is at least 9.0.

For the molecule `CC(=O)c1cc(C(=O)N[C@H](Cc2ccc(-c3cccc(Cl)c3)cc2)C[C@@H](O)C(=O)O)on1` [Example 18-7, (2R,4R)-4-[(3-Acetyl-isoxazole-5-carbonyl)-amino]-5-(3′-chlorobiphenyl-4-yl)-2-hydroxy-pentanoic acid], the pKi is listed as at least 9.0.

With `COc1cc(C(=O)N[C@H](Cc2ccc(-c3cccc(Cl)c3)cc2)C[C@@H](O)C(=O)O)on1` [Example 18-8, (2R,4R)-5-(3′-Chlorobiphenyl-4-yl)-2-hydroxy-4-[(3-methoxy-isoxazole-5-carbonyl)-amino]-pentanoic acid], the negative-log Ki (pKi) is reported as at least 9.0.

Regarding `O=C(N[C@H](Cc1ccc(-c2cccc(Cl)c2)cc1)C[C@@H](O)C(=O)O)c1cc(Cl)no1` [Example 18-9, (2R,4R)-5-(3′-Chloro-biphenyl-4-yl)-4-[(3-chloro-isoxazole-5-carbonyl)-amino]-2-hydroxy-pentanoic acid], the negative-log Ki (pKi) is at least 9.0.

Turning to `CC(C)c1cc(C(=O)N[C@H](Cc2ccc(-c3cccc(Cl)c3)cc2)C[C@@H](O)C(=O)O)on1` [Example 18-10, (2R,4R)-5-(3′-Chloro-biphenyl-4-yl)-2-hydroxy-4-[(3-isopropyl-isoxazole-5-carbonyl)-amino]-pentanoic acid], the pKi is at least 9.0.

For the molecule `CCCc1cc(C(=O)N[C@H](Cc2ccc(-c3cccc(Cl)c3)cc2)C[C@@H](O)C(=O)O)on1` [Example 18-11, (2R,4R)-5-(3′-Chloro-biphenyl-4-yl)-2-hydroxy-4-[(3-propyl-isoxazole-5-carbonyl)-amino]-pentanoic acid], the pKi is on record as at least 9.0.

For `CC(C)Cc1cc(C(=O)N[C@H](Cc2ccc(-c3cccc(Cl)c3)cc2)C[C@@H](O)C(=O)O)on1` [Example 18-12, (2R,4R)-5-(3′-Chloro-biphenyl-4-yl)-2-hydroxy-4-[(3-isobutyl-isoxazole-5-carbonyl)-amino]-pentanoic acid], the pKi is given as at least 9.0.

As to `CC(C)(O)c1cc(C(=O)N[C@H](Cc2ccc(-c3cccc(Cl)c3)cc2)C[C@@H](O)C(=O)O)on1` [Example 18-13, (2R,4R)-5-(3′-Chloro-biphenyl-4-yl)-2-hydroxy-4-{[3-(1-hydroxy-1-methyl-ethyl)-isoxazole-5-carbonyl]-amino}-pentanoic acid], the negative-log Ki (pKi) is at least 9.0.

With `CC(C)(C)c1cc(C(=O)N[C@H](Cc2ccc(-c3cccc(Cl)c3)cc2)C[C@@H](O)C(=O)O)on1` [Example 18-14, (2R,4R)-4-[(3-tert-Butyl-isoxazole-5-carbonyl)-amino]-5-(3′-chloro-biphenyl-4-yl)-2-hydroxy-pentanoic acid], the pKi was at least 9.0.

Regarding `O=C(N[C@H](Cc1ccc(-c2cccc(Cl)c2)cc1)C[C@@H](O)C(=O)O)c1cc(-c2ccccc2Cl)on1` [Example 18-15, (2R,4R)-5-(3′-Chlorobiphenyl-4-yl)-4-{[5-(2-chlorophenyl)-isoxazole-3-carbonyl]-amino}-2-hydroxy-pentanoic acid], the pKi was at least 9.0.

For `O=C(N[C@H](Cc1ccc(-c2cccc(Cl)c2)cc1)C[C@@H](O)C(=O)O)c1cc(-c2ccccc2O)on1` [Example 18-16, (2R,4R)-5-(3′-Chlorobiphenyl-4-yl)-2-hydroxy-4-{[5-(2-hydroxyphenyl)-isoxazole-3-carbonyl]-amino}-pentanoic acid], the pKi is listed as at least 9.0.

`O=C(N[C@H](Cc1ccc(-c2cccc(Cl)c2)cc1)C[C@@H](O)C(=O)O)c1cc(-c2ccccc2O)n[nH]1` [Example 18-17, (2R,4R)-5-(3′-Chlorobiphenyl-4-yl)-2-hydroxy-4-{[5-(2-hydroxy-phenyl)-2H-pyrazole-3-carbonyl]-amino}-pentanoic acid]: the negative-log Ki (pKi) is on record as at least 9.0.

For `O=C(N[C@H](Cc1ccc(-c2cccc(Cl)c2)cc1)C[C@@H](O)C(=O)O)c1cc(-c2cnccn2)n[nH]1` [Example 18-19, (2R,4R)-5-(3′-Chlorobiphenyl-4-yl)-2-hydroxy-4-[(5-pyrazin-2-yl-2H-pyrazole-3-carbonyl)-amino]-pentanoic acid], the pKi is given as at least 9.0.

As to `O=C(N[C@H](Cc1ccc(-c2cccc(Cl)c2)cc1)C[C@@H](O)C(=O)O)c1cc(-c2ccccn2)n[nH]1` [Example 18-23, (2R,4R)-5-(3′-Chlorobiphenyl-4-yl)-2-hydroxy-4-[(5-pyridin-2-yl-2H-pyrazole-3-carbonyl)-amino]-pentanoic acid], the pKi is listed as at least 9.0.

On to `O=C(N[C@H](Cc1ccc(-c2cccc(Cl)c2)cc1)C[C@@H](O)C(=O)O)c1cc(NC(=O)c2ccccc2Cl)n[nH]1` [Example 18-27, (2R,4R)-4-{[5-(2-Chlorobenzoylamino)-2H-pyrazole-3-carbonyl]-amino}-5-(3′-chlorobiphenyl-4-yl)-2-hydroxy-pentanoic acid], for which the negative-log Ki (pKi) is recorded as at least 9.0.
